Experimental data taken from PubChem BioAssay AID330 (DTP/NCI, 2004).
Where “and” joins values, the source holds several entries; their conditions need not be identical. Identical values can stand only once. Inconclusive results and toxic doses are left out. Rule for the calls: active = survival T/C of 150% or more; inactive = T/C below 125% in these data.

Tested on: P388 leukemia ip, CD2F1 mice, survival T/C
Test: NCI In Vivo Anticancer Drug Screen. Data for tumor model P388 Leukemia (intraperitoneal) in CD2F1 (CDF1) mice
Settings: endpoint: median survival time, higher = longer survival
In short: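 Mice carrying the transplanted tumor received test compound or vehicle. Survival was recorded in each group, and the value is the treated-group measurement divided by that of the vehicle-treated control group.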

[1] = dose: 25.0 mg/kg/injection, schedule: Q01DX009 (ip), vehicle: saline with Tween-80
[2] = dose: 50.0 mg/kg/injection, schedule: Q01DX009 (ip), vehicle: saline with Tween-80
[3] = dose: 100.0 mg/kg/injection, schedule: Q01DX009 (ip), vehicle: saline with Tween-80
[4] = dose: 200.0 mg/kg/injection, schedule: Q01DX009 (ip), vehicle: saline with Tween-80
[5] = dose: 50.0 mg/kg/injection, schedule: Q01DX009 (ip), vehicle: Klucel (hydroxypropylcellulose) (HPC)
[6] = dose: 100.0 mg/kg/injection, schedule: Q01DX009 (ip), vehicle: Klucel (hydroxypropylcellulose) (HPC)
[7] = dose: 200.0 mg/kg/injection, schedule: Q01DX009 (ip), vehicle: Klucel (hydroxypropylcellulose) (HPC)
[8] = dose: 100.0 mg/kg/injection, schedule: Q01DX009 (ip), vehicle: saline
[9] = dose: 200.0 mg/kg/injection, schedule: Q01DX009 (ip), vehicle: saline
[10] = dose: 100.0 mg/kg/injection, schedule: Q04DX003 (ip), vehicle: saline with Tween-80
[11] = dose: 200.0 mg/kg/injection, schedule: Q04DX003 (ip), vehicle: saline with Tween-80
[12] = dose: 400.0 mg/kg/injection, schedule: Q04DX003 (ip), vehicle: saline with Tween-80

Measured: T/C

O=NNc1ccnc(-c2cc(NN=O)ccn2)c1
inactive: dose: 3.12 mg/kg/injection, schedule: Q01DX009 (ip), vehicle: water 114 % of control | dose: 6.25 mg/kg/injection, schedule: Q01DX009 (ip), vehicle: water 120 % of control and 122 % of control | dose: 100.0 mg/kg/injection, schedule: Q01DX009 (ip), vehicle: water 87 % of control

O=C1CCCc2c1[nH]c1ccccc21
inactive: [1] 100 % of control | [2] 105 % of control | [3] 108 % of control | [4] 104 % of control

C=C(C)C12CC(C)C34OC(CCCCCCCCCCC)(OC1C3C1OC1(CO)C(O)C1(O)C(=O)C(C)=CC14C)O2 (stereo not given)
inactive: dose: 0.05 mg/kg/injection, schedule: Q01DX009 (ip), vehicle: distilled water + Tween-80 99 % of control and 100 % of control | dose: 0.06 mg/kg/injection, schedule: Q01DX009 (ip), vehicle: other 100 % of control | dose: 0.1 mg/kg/injection, schedule: Q01DX009 (ip), vehicle: distilled water + Tween-80 100 % of control and 96 % of control | dose: 0.12 mg/kg/injection, schedule: Q01DX009 (ip), vehicle: other 104 % of control | dose: 0.2 mg/kg/injection, schedule: Q01DX009 (ip), vehicle: distilled water + Tween-80 103 % of control and 96 % of control | dose: 0.4 mg/kg/injection, schedule: Q01DX009 (ip), vehicle: distilled water + Tween-80 105 % of control and 119 % of control | dose: 25.0 micrograms/kg/injection, schedule: Q01DX009 (ip), vehicle: other 112 % of control | dose: 50.0 micrograms/kg/injection, schedule: Q01DX009 (ip), vehicle: other 112 % of control

CCc1nc2c(cnn2C)c(=O)n1-c1ccccc1
inactive: dose: 50.0 mg/kg/injection, schedule: Q01DX005 (ip), vehicle: Klucel (hydroxypropylcellulose) (HPC) 101 % of control | dose: 100.0 mg/kg/injection, schedule: Q01DX005 (ip), vehicle: Klucel (hydroxypropylcellulose) (HPC) 100 % of control | dose: 200.0 mg/kg/injection, schedule: Q01DX005 (ip), vehicle: Klucel (hydroxypropylcellulose) (HPC) 96 % of control

COc1cccc2c1C(=O)c1c(O)c3c(c(O)c1C2=O)C[C@@](O)(C(C)=O)C[C@@H]3OC1CC(N=CCCCC=NC2CC(O[C@H]3C[C@](O)(C(C)=O)Cc4c(O)c5c(c(O)c43)C(=O)c3c(OC)cccc3C5=O)OC(C)C2O)C(O)C(C)O1 (stereo not given in full)
inactive: dose: 0.5 mg/kg/injection, schedule: Q04DX003 (ip), vehicle: distilled water + Tween-80 104 % of control | dose: 1.0 mg/kg/injection, schedule: Q04DX003 (ip), vehicle: distilled water + Tween-80 110 % of control | dose: 2.0 mg/kg/injection, schedule: Q04DX003 (ip), vehicle: distilled water + Tween-80 123 % of control | dose: 16.0 mg/kg/injection, schedule: Q04DX003 (ip), vehicle: distilled water + Tween-80 122 % of control

O=C(Cn1nnc(N2CCOCC2)n1)N/N=C/c1ccccc1Cl
inactive: dose: 60.0 mg/kg/injection, schedule: Q01DX005 (ip), vehicle: Klucel (hydroxypropylcellulose) (HPC) 91 % of control | dose: 120.0 mg/kg/injection, schedule: Q01DX005 (ip), vehicle: Klucel (hydroxypropylcellulose) (HPC) 87 % of control | dose: 240.0 mg/kg/injection, schedule: Q01DX005 (ip), vehicle: Klucel (hydroxypropylcellulose) (HPC) 87 % of control

COc1ccc(Cl)cc1NC(=O)c1ccco1
inactive: dose: 60.0 mg/kg/injection, schedule: Q01DX005 (ip), vehicle: saline with Tween-80 96 % of control | dose: 120.0 mg/kg/injection, schedule: Q01DX005 (ip), vehicle: saline with Tween-80 99 % of control | dose: 240.0 mg/kg/injection, schedule: Q01DX005 (ip), vehicle: saline with Tween-80 98 % of control

Nc1nc(SCc2ccccc2)sc1C(=O)N(Cc1ccccc1)Cc1ccccc1
inactive: [5] 98 % of control | [6] 100 % of control | [7] 100 % of control

CC1CN=C(NS(=O)(=O)c2ccccc2)N1 (stereo not given)
inactive: dose: 50.0 mg/kg/injection, schedule: Q01DX009 (ip), vehicle: saline 101 % of control | [8] 93 % of control | [9] 92 % of control

O=C1c2ccccc2C(=O)N1CN1C(=O)c2ccccc2C1=O
inactive: [1] 95 % of control | [2] 115 % of control and 90 % of control | [3] 90 % of control | [4] 100 % of control

CCC(CC)c1ccccn1
inactive: [8] 101 % of control | dose: 100.0 mg/kg/injection, schedule: Q04DX003 (ip), vehicle: saline 122 % of control | [9] 105 % of control

CCOC(=O)C1CC1(C(=O)OCC)C(=O)OCC (stereo not given)
inactive: [10] 96 % of control | [11] 97 % of control | [12] 92 % of control

c1cc2c3c(cccc3c1)-c1nc3c(ccc4ccccc43)nc1-2
inactive: [5] 107 % of control | [6] 101 % of control | [7] 93 % of control | dose: 400.0 mg/kg/injection, schedule: Q01DX009 (ip), vehicle: Klucel (hydroxypropylcellulose) (HPC) 107 % of control

CC1SC(=S)N(c2ccccc2)C1=O (stereo not given)
inactive: [2] 104 % of control | dose: 50.0 mg/kg/injection, schedule: Q04DX003 (ip), vehicle: saline with Tween-80 112 % of control | [3] 100 % of control | [10] 108 % of control | [4] 109 % of control | [11] 108 % of control

C/C=C/c1ccccc1N/N=C(\Cl)C(=O)OCC
inactive: dose: 3.75 mg/kg/injection, schedule: Q01DX005 (ip), vehicle: saline with Tween-80 107 % of control | dose: 7.5 mg/kg/injection, schedule: Q01DX005 (ip), vehicle: saline with Tween-80 99 % of control | dose: 12.5 mg/kg/injection, schedule: Q01DX005 (ip), vehicle: saline with Tween-80 99 % of control | dose: 15.0 mg/kg/injection, schedule: Q01DX005 (ip), vehicle: saline with Tween-80 119 % of control | dose: 25.0 mg/kg/injection, schedule: Q01DX005 (ip), vehicle: saline with Tween-80 106 % of control | dose: 50.0 mg/kg/injection, schedule: Q01DX005 (ip), vehicle: saline with Tween-80 118 % of control | [2] 117 % of control

CC(C1N(c2ccc(C(=O)NC(CCC(=O)O)C(=O)O)cc2)CC2CNc3nc(N)[nH]c(=O)c3N21)C1N(c2ccc(C(=O)NC(CCC(=O)O)C(=O)O)cc2)CC2CNc3nc(N)[nH]c(=O)c3N21 (stereo not given)
inactive: dose: 50.0 mg/kg/injection, schedule: Q01DX001 (ip), vehicle: saline 94 % of control | dose: 100.0 mg/kg/injection, schedule: Q01DX001 (ip), vehicle: saline 108 % of control | dose: 200.0 mg/kg/injection, schedule: Q01DX001 (ip), vehicle: saline 116 % of control

Nc1nc2ncc(CN(C(=O)CCCl)c3ccc(C(=O)NC(CCC(=O)O)C(=O)O)cc3)nc2c(=O)[nH]1 (stereo not given)
inactive: dose: 50.0 mg/kg/injection, schedule: Q01DX009 (ip), vehicle: alkali diluted with saline 100 % of control | dose: 100.0 mg/kg/injection, schedule: Q01DX009 (ip), vehicle: alkali diluted with saline 108 % of control | dose: 200.0 mg/kg/injection, schedule: Q01DX009 (ip), vehicle: alkali diluted with saline 101 % of control

O=C1CCc2nc(-c3ccccc3)ncc21
inactive: [10] 99 % of control | [11] 89 % of control | [12] 88 % of control

N=c1c(C(N)=O)nc(/C=C/c2ccccc2)cn1O
inactive: dose: 12.5 mg/kg/injection, schedule: Q01DX009 (ip), vehicle: saline with Tween-80 90 % of control | [1] 90 % of control | [2] 96 % of control

NNS(=O)(=O)CCC(NC(=O)OCc1ccccc1)C(=O)OCc1ccccc1 (stereo not given)
inactive: dose: 12.5 mg/kg/injection, schedule: Q01DX009 (ip), vehicle: other 98 % of control | dose: 25.0 mg/kg/injection, schedule: Q01DX009 (ip), vehicle: other 103 % of control | dose: 50.0 mg/kg/injection, schedule: Q01DX009 (ip), vehicle: other 94 % of control | dose: 100.0 mg/kg/injection, schedule: Q01DX009 (ip), vehicle: other 94 % of control | dose: 200.0 mg/kg/injection, schedule: Q01DX009 (ip), vehicle: other 98 % of control

COC1/C=C\OC2(C)Oc3c(C)c(O)c4c(O)c(c5c(c4c3C2=O)OC[N+](C)=C5)NC(=O)/C(C)=C\C=C\C(C)C(O)C(C)C(O)C(C)C(OC(C)=O)C1C (stereo not given)
inactive: dose: 25.0 mg/kg/injection, schedule: Q01DX009 (ip), vehicle: Klucel (hydroxypropylcellulose) (HPC) 92 % of control | [5] 97 % of control | [6] 95 % of control | [7] 95 % of control

Cc1[nH]cc2c1C(c1ccccc1)=NCC(=O)N2
inactive: [2] 105 % of control | [3] 100 % of control | [4] 114 % of control
